Results as given in patent US6737383B1, “Herbicidal oxadiazolidines” (priority 1999, dated 2004).

How the values were obtained:
bedstraw = assay: Test B pre/postemergence bedstraw; assay type: in vivo, Galium aparine; settings: Preemergence
Summary of the method: (§1)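 Test chemicals in a non-phytotoxic solvent mixture with surfactant were sprayed preemergence onto planted seeds and postemergence onto plants 2 to 18 cm tall (1- to 4-leaf stage). After twelve to sixteen days in a greenhouse, injury was visually rated against untreated controls from 0 (no effect) to 10 (complete control).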

blackgrass = assay: Test B pre/postemergence blackgrass; assay type: in vivo, Alopecurus myosuroides; settings: Preemergence
Summary of the method: as §1

surinam grass = assay: Test B pre/postemergence surinam grass; assay type: in vivo, Brachiaria decumbens; settings: Preemergence
Summary of the method: as §1

cocklebur = assay: Test B pre/postemergence cocklebur; assay type: in vivo, Xanthium strumarium; settings: Preemergence
Summary of the method: as §1

corn = assay: Test B pre/postemergence corn; assay type: in vivo, Zea mays; settings: Preemergence
Summary of the method: as §1

crabgrass = assay: Test B pre/postemergence crabgrass; assay type: in vivo, Digitaria sanguinalis; settings: Preemergence
Summary of the method: as §1

giant foxtail = assay: Test B pre/postemergence giant foxtail; assay type: in vivo, Setaria faberii; settings: Preemergence
Summary of the method: as §1

morningglory = assay: Test B pre/postemergence morningglory; assay type: in vivo, Ipomoea hederacea; settings: Preemergence
Summary of the method: as §1

pigweed = assay: Test B pre/postemergence pigweed; assay type: in vivo, Amaranthus retroflexus; settings: Preemergence
Summary of the method: as §1

rape = assay: Test B pre/postemergence rape; assay type: in vivo, Brassica napus; settings: Preemergence
Summary of the method: as §1

soybean = assay: Test B pre/postemergence soybean; assay type: in vivo, Glycine max; settings: Preemergence
Summary of the method: as §1

sugar beet = assay: Test B pre/postemergence sugar beet; assay type: in vivo, Beta vulgaris; settings: Preemergence
Summary of the method: as §1

velvetleaf = assay: Test B pre/postemergence velvetleaf; assay type: in vivo, Abutilon theophrasti; settings: Preemergence
Summary of the method: as §1

wheat = assay: Test B pre/postemergence wheat; assay type: in vivo, Triticum aestivum; settings: Preemergence
Summary of the method: as §1

wild oat = assay: Test B pre/postemergence wild oat; assay type: in vivo, Avena fatua; settings: Preemergence
Summary of the method: as §1

purple nutsedge = assay: Test B pre/postemergence purple nutsedge; assay type: in vivo, Cyperus rotundus; settings: Preemergence
Summary of the method: as §1

rice = assay: Test B flood test rice; assay type: in vivo, Oryza sativa
Summary of the method: (§2)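 Flood test on plants grown to the 2-leaf stage; treated plants kept in greenhouse twelve to sixteen days, then visually rated against controls on a 0 (no effect) to 10 (complete control) scale.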

smallflower flatsedge = assay: Test B flood test smallflower flatsedge; assay type: in vivo, Cyperus difformis
Summary of the method: as §2

duck salad = assay: Test B flood test duck salad; assay type: in vivo, Heteranthera limosa
Summary of the method: as §2

bamyardgrass = assay: Test B flood test barnyardgrass; assay type: in vivo, Echinochloa crus-galli
Summary of the method: as §2

[1] = Rate 125 g/ha, scale of 0 to 10 where 0 is no effect and 10 is complete control
[2] = Rate 250 g/ha, scale 0 (no effect) to 10 (complete control)
[3] = Rate 500 g/ha, scale 0 to 10 (0 no effect, 10 complete control)
[4] = Rate 1000 g/ha, scale 0 to 10 (0 no effect, 10 complete control)
[5] = Pre-emergence, Rate 62 g/ha, scale 0 to 10, 0 is no effect, 10 is complete control
[6] = Rate 125 g/ha, Pre-emergence section (flood test species), scale 0 to 10, 0 no effect, 10 complete control
[7] = Rate 250 g/ha, Pre-emergence (flood test species), scale 0 to 10, 0 is no effect, 10 is complete control
[8] = Rate 500 g/ha, Pre-emergence section of Table B, 0 to 10 scale (0 no effect, 10 complete control)

COC(=O)C(c1ccccc1)n1c(=O)on(C(=O)N(c2ccc(Cl)cc2)C(C)C)c1=O (centres unmarked) [Compound 724]
2: Plant response rating, Blackgrass (blackgrass; [4])
7: Crabgrass plant response rating (crabgrass; [2]) | Crabgrass plant response rating (crabgrass; [3]) | Giant foxtail plant response rating (giant foxtail; [2])
9: Plant response rating, Crabgrass (crabgrass; [4]) | Giant foxtail plant response rating (giant foxtail; [3])
0: Plant response rating, Bedstraw (bedstraw; [1]) | Bedstraw plant response rating (bedstraw; [2]) | Bedstraw plant response rating (bedstraw; [3]) | Plant response rating, Bedstraw (bedstraw; [4]) | Plant response rating, Blackgrass (blackgrass; [1]) | Blackgrass plant response rating (blackgrass; [2]) | Blackgrass plant response rating (blackgrass; [3]) | Plant response rating, B. signalgrass (surinam grass; [1]) | B. signalgrass plant response rating (surinam grass; [2]) | B. signalgrass plant response rating (surinam grass; [3]) | Plant response rating, B. signalgrass (surinam grass; [4]) | Plant response rating, Cocklebur (cocklebur; [1]) | Cocklebur plant response rating (cocklebur; [2]) | Cocklebur plant response rating (cocklebur; [3]) | Plant response rating, Cocklebur (cocklebur; [4]) | Plant response rating, Corn (corn; [1]) | Corn plant response rating (corn; [2]) | Corn plant response rating (corn; [3]) | Plant response rating, Corn (corn; [4]) | Plant response rating, Giant foxtail (giant foxtail; [1]) | Plant response rating, Morningglory (morningglory; [1]) | Morningglory plant response rating (morningglory; [2]) | Morningglory plant response rating (morningglory; [3]) | Plant response rating, Morningglory (morningglory; [4]) | Plant response rating, Redroot pigweed (pigweed; [1]) | Redroot pigweed plant response rating (pigweed; [2]) | Redroot pigweed plant response rating (pigweed; [3]) | Plant response rating, Rape (rape; [1]) | Rape plant response rating (rape; [2]) | Rape plant response rating (rape; [3]) | Plant response rating, Rape (rape; [4]) | Plant response rating, Soybean (soybean; [1]) | Soybean plant response rating (soybean; [2]) | Soybean plant response rating (soybean; [3]) | Plant response rating, Soybean (soybean; [4]) | Plant response rating, Sugarbeets (sugar beet; [1]) | Sugarbeets plant response rating (sugar beet; [2]) | Sugarbeets plant response rating (sugar beet; [3]) | Plant response rating, Sugarbeets (sugar beet; [4]) | Plant response rating, Velvetleaf (velvetleaf; [1]) | Velvetleaf plant response rating (velvetleaf; [2]) | Velvetleaf plant response rating (velvetleaf; [3]) | Plant response rating, Velvetleaf (velvetleaf; [4]) | Plant response rating, Wheat (wheat; [1]) | Wheat plant response rating (wheat; [2]) | Wheat plant response rating (wheat; [3]) | Plant response rating, Wheat (wheat; [4]) | Plant response rating, Wild oats (wild oat; [1]) | Wild oats plant response rating (wild oat; [2]) | Wild oats plant response rating (wild oat; [3]) | Plant response rating, Wild oats (wild oat; [4]) | Plant response rating, Nutsedge (purple nutsedge; [1]) | Nutsedge plant response rating (purple nutsedge; [2]) | Nutsedge plant response rating (purple nutsedge; [3]) | Plant response rating, Nutsedge (purple nutsedge; [4]) | Rice plant response rating (rice; [5]) | Rice plant response rating (rice; [6]) | Rice plant response rating (rice; [7]) | Rice plant response rating (rice; [8]) | S. Flatsedge plant response rating (smallflower flatsedge; [5]) | S. Flatsedge plant response rating (smallflower flatsedge; [6]) | S. Flatsedge plant response rating (smallflower flatsedge; [7]) | S. Flatsedge plant response rating (smallflower flatsedge; [8]) | Ducksalad plant response rating (duck salad; [5]) | Ducksalad plant response rating (duck salad; [6]) | Ducksalad plant response rating (duck salad; [7]) | Ducksalad plant response rating (duck salad; [8]) | Barnyardgrass plant response rating (bamyardgrass; [5]) | Barnyardgrass plant response rating (bamyardgrass; [6]) | Barnyardgrass plant response rating (bamyardgrass; [7]) | Barnyardgrass plant response rating (bamyardgrass; [8])
3: Plant response rating, Crabgrass (crabgrass; [1]) | Plant response rating, Redroot pigweed (pigweed; [4])
10: Plant response rating, Giant foxtail (giant foxtail; [4])
